The values below come from paper PMC9133015 (Nature Communications, 2022).

Values joined by “and” are separate entries in the source; they are usually repeats but may differ in a detail not shown here. Equal entries are not always repeated.

What all share (experiment): Kinase inhibitor specificity profiling (Reaction Biology Corporation)
Format in all cases: biochemical
Set-up in all cases: % Enzyme Activity (relative to DMSO controls): concentration or dose not given beside the values

Experiment [1] has as its target T1, panel of 370 protein kinases (Homo sapiens, UniProt O43353).
T1 construct: purchased Reaction Biology Corporation (assay service)
Conditions: 2 h, kinase RIPK2; read-out: % Enzyme Activity (relative to DMSO controls).

In experiment [2] the target is T2, panel of 370 protein kinases (Homo sapiens, UniProt O60285).
T2 construct: purchased Reaction Biology Corporation (assay service)
T2 sequence (O60285 whole entry): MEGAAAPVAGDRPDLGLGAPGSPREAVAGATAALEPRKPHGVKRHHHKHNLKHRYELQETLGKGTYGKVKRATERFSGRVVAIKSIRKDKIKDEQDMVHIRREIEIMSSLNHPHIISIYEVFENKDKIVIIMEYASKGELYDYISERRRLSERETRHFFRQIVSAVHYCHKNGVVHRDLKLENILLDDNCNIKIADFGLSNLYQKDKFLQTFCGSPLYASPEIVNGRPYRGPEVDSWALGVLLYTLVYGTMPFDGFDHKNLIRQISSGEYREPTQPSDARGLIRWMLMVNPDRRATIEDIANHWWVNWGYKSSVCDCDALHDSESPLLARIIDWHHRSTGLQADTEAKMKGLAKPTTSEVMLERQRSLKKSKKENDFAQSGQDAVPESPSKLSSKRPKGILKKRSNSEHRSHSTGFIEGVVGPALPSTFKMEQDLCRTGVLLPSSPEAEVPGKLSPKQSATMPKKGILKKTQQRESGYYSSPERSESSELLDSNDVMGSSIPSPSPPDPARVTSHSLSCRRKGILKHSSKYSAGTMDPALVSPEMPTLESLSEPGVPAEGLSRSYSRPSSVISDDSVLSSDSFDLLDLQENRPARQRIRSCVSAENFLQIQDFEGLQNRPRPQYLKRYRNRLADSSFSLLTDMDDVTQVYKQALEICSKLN
Conditions: kinase ARK5/NUAK1.

Experiment [3] has as its target T3, panel of 370 protein kinases (Homo sapiens, UniProt P09619).
T3 construct: purchased Reaction Biology Corporation (assay service)
Conditions: 2 h, kinase PDGFRb; read-out: % Enzyme Activity (relative to DMSO controls).

Experiment [4] has as its target T4, panel of 370 protein kinases (Homo sapiens, UniProt P09769).
T4 construct: purchased Reaction Biology Corporation (assay service)
Conditions: 2 h, kinase FGR; read-out: % Enzyme Activity (relative to DMSO controls).

Experiment [5] has as its target T5, panel of 370 protein kinases (Homo sapiens, UniProt P29320).
T5 construct: purchased Reaction Biology Corporation (assay service)
Conditions: 2 h, kinase EPHA3; read-out: % Enzyme Activity (relative to DMSO controls).

Experiment [6] deals with T6, panel of 370 protein kinases (Homo sapiens, UniProt P41279).
T6 construct: purchased Reaction Biology Corporation (assay service)
Conditions: 2 h, kinase COT1/MAP3K8; read-out: % Enzyme Activity (relative to DMSO controls).

Experiment [7] has as its target T7, panel of 370 protein kinases (Homo sapiens, UniProt P51956).
T7 construct: purchased Reaction Biology Corporation (assay service)
Conditions: 2 h, kinase NEK3; read-out: % Enzyme Activity (relative to DMSO controls).

Experiment [8] deals with T8, panel of 370 protein kinases (Homo sapiens, UniProt P80192).
T8 construct: purchased Reaction Biology Corporation (assay service)
T8 sequence (P80192 whole entry): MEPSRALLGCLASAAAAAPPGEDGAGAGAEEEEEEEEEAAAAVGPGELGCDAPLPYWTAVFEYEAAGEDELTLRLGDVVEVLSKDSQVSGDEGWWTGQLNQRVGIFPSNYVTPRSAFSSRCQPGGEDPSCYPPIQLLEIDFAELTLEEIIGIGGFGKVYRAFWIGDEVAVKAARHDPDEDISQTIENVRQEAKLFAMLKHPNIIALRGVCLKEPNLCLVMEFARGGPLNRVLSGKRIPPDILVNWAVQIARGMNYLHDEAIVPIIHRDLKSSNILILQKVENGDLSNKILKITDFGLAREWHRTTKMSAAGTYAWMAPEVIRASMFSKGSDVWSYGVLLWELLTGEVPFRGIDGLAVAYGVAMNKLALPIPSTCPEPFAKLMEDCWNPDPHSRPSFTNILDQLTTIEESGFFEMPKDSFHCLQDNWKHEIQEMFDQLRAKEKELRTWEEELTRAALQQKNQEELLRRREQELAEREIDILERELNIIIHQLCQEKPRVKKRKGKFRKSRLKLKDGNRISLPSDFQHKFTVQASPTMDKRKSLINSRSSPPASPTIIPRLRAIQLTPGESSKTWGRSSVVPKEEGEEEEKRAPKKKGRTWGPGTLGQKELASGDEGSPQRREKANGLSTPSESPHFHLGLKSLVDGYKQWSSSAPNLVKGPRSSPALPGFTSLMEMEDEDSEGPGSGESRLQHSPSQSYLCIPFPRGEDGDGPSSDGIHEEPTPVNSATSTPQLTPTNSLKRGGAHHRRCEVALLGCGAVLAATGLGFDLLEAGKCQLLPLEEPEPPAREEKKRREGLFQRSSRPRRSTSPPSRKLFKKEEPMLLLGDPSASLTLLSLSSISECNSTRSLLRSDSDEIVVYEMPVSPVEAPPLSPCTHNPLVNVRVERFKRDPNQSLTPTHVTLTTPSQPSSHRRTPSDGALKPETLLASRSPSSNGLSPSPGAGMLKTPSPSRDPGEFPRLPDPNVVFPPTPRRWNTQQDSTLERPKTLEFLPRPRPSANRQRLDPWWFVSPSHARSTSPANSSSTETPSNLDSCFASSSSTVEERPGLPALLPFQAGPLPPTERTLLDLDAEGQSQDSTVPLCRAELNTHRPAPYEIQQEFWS
Conditions: 2 h, kinase MLK1/MAP3K9; read-out: % Enzyme Activity (relative to DMSO controls).

Experiment [9] concerns the target T9, panel of 370 protein kinases (Homo sapiens, UniProt Q00526).
T9 construct: purchased Reaction Biology Corporation (assay service)

In experiment [10] the target is T10, panel of 370 protein kinases (Homo sapiens, UniProt Q06187).
T10 construct: purchased Reaction Biology Corporation (assay service)
T10 sequence (Q06187 whole entry): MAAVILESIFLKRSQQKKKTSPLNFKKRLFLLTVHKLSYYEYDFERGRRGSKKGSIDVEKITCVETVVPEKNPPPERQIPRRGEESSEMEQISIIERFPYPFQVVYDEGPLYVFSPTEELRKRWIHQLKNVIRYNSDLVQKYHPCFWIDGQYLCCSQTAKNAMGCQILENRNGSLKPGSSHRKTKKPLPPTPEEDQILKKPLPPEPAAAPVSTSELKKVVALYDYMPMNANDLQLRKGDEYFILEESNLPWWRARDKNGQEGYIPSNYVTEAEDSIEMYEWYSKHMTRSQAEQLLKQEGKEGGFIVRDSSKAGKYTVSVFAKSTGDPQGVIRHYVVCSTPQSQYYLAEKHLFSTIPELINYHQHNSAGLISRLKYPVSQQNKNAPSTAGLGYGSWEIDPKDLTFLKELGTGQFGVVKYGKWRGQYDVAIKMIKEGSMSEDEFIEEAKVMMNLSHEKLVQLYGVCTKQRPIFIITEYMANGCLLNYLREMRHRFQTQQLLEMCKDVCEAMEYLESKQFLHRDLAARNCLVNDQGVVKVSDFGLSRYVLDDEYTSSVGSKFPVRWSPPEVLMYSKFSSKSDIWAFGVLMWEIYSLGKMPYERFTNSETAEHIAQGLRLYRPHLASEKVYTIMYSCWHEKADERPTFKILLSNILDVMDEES
Conditions: kinase BTK.

Experiment [11] has as its target T11, panel of 370 protein kinases (Homo sapiens, UniProt Q08345).
T11 construct: purchased Reaction Biology Corporation (assay service)
Conditions: 2 h, kinase DDR1; read-out: % Enzyme Activity (relative to DMSO controls).

The target of experiment [12] is T12, panel of 370 protein kinases (Homo sapiens, UniProt Q14289).
T12 construct: purchased Reaction Biology Corporation (assay service)
Conditions: 2 h, kinase PYK2; read-out: % Enzyme Activity (relative to DMSO controls).

Experiment [13] addresses T13, panel of 370 protein kinases (Homo sapiens, UniProt Q15375).
T13 construct: purchased Reaction Biology Corporation (assay service)
Conditions: 2 h, kinase EPHA7; read-out: % Enzyme Activity (relative to DMSO controls).

The target in experiment [14] is T14, panel of 370 protein kinases (Homo sapiens, UniProt Q16288).
T14 construct: purchased Reaction Biology Corporation (assay service)
Conditions: 2 h, kinase TRKC; read-out: % Enzyme Activity (relative to DMSO controls).

Experiment [15] concerns the target T15, panel of 370 protein kinases (Homo sapiens, UniProt Q5TCY1).
T15 construct: purchased Reaction Biology Corporation (assay service)
Conditions: 2 h, kinase TTBK1; read-out: % Enzyme Activity (relative to DMSO controls).

Experiment [16] deals with T16, panel of 370 protein kinases (Homo sapiens, UniProt Q86YV6).
T16 construct: purchased Reaction Biology Corporation (assay service)
Conditions: 2 h, kinase MYLK4; read-out: % Enzyme Activity (relative to DMSO controls).

Experiment [17] concerns the target T17, panel of 370 protein kinases (Homo sapiens, UniProt Q96RG2).
T17 construct: purchased Reaction Biology Corporation (assay service)
Conditions: 2 h, kinase PASK; read-out: % Enzyme Activity (relative to DMSO controls).

Experiment [18] has as its target T18, panel of 370 protein kinases (Homo sapiens, UniProt Q9H3Y6).
T18 construct: purchased Reaction Biology Corporation (assay service)
Conditions: 2 h, kinase SRMS; read-out: % Enzyme Activity (relative to DMSO controls).

Experiment [19] has as its target T19, panel of 370 protein kinases (Homo sapiens, UniProt Q9NYL2).
T19 construct: purchased Reaction Biology Corporation (assay service)
Conditions: 2 h, kinase ZAK/MLTK; read-out: % Enzyme Activity (relative to DMSO controls).

The target in experiment [20] is T20, panel of 370 protein kinases (Homo sapiens, UniProt Q9UIK4).
T20 construct: purchased Reaction Biology Corporation (assay service)
Conditions: 2 h, kinase DAPK2; read-out: % Enzyme Activity (relative to DMSO controls).

Experiment [21] concerns the target T21, panel of 370 protein kinases (Homo sapiens, UniProt Q9UQM7).
T21 construct: purchased Reaction Biology Corporation (assay service)
Conditions: 2 h, kinase CAMK2a; read-out: % Enzyme Activity (relative to DMSO controls).

T9 sequence (Q00526 whole entry): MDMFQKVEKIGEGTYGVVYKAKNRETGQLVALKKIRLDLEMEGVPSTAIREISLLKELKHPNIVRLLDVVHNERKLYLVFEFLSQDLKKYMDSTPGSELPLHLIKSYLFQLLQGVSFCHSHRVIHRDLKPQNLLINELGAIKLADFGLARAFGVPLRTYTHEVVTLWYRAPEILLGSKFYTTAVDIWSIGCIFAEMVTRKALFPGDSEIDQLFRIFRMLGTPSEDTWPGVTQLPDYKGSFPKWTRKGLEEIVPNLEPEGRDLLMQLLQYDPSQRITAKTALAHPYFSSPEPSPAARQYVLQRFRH
T21 sequence (Q9UQM7 whole entry): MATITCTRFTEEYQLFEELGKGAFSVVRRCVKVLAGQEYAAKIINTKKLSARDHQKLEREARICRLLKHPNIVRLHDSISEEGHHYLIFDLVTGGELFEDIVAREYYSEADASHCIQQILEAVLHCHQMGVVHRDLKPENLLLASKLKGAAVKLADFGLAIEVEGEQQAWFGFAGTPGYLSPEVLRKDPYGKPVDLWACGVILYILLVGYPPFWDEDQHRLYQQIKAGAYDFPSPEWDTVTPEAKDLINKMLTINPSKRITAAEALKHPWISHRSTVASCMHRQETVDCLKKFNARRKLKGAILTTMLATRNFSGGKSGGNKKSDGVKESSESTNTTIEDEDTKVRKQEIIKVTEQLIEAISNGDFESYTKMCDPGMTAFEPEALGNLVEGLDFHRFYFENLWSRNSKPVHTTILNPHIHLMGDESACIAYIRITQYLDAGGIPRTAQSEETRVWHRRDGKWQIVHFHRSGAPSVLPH
T19 sequence (Q9NYL2 whole entry): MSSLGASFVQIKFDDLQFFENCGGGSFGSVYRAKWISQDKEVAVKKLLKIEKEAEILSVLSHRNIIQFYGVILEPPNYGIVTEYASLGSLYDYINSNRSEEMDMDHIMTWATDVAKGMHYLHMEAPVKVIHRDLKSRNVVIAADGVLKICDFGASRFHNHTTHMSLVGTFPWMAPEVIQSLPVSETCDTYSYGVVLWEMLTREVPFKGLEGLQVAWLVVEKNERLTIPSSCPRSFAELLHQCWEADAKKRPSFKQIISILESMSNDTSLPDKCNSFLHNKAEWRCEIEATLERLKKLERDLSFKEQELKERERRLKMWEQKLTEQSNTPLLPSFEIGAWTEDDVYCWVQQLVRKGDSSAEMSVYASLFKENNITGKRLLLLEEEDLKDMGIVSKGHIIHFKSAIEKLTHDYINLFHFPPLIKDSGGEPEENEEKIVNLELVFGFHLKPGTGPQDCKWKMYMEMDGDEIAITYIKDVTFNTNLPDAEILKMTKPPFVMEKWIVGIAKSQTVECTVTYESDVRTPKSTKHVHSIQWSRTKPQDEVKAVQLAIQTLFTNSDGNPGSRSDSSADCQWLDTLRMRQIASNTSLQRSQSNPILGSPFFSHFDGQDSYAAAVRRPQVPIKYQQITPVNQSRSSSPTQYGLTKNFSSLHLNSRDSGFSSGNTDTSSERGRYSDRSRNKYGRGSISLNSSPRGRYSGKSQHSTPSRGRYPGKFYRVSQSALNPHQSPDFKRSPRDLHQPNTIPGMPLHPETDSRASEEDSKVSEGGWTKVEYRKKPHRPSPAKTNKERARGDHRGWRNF
T18 sequence (Q9H3Y6 whole entry): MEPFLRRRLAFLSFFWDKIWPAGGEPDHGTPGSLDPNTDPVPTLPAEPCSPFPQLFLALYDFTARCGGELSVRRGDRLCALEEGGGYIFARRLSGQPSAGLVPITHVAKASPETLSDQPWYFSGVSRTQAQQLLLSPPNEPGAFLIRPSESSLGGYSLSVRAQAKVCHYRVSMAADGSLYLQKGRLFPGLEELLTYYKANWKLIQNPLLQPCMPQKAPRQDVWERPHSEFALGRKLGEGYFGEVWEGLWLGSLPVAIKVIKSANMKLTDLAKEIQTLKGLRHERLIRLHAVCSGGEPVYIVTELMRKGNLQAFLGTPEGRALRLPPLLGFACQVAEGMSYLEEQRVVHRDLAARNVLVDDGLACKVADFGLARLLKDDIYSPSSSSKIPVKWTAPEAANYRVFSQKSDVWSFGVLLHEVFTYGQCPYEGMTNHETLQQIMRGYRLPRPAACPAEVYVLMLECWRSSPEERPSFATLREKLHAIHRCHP
T1 sequence (O43353 whole entry): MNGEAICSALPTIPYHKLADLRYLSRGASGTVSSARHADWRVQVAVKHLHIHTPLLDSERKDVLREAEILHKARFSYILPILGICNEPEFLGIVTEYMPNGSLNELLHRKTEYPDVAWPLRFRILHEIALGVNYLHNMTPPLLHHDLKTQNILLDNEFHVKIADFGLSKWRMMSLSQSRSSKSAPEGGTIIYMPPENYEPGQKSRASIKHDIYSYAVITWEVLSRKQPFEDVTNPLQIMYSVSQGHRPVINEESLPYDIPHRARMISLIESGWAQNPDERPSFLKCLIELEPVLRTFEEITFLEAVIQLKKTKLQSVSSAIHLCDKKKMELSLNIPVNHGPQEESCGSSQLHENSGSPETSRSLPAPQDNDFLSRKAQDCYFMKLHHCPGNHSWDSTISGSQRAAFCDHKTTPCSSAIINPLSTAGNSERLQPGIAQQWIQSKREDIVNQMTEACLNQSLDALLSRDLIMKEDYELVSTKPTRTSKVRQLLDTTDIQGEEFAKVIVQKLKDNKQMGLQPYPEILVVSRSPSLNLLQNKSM

As to `CCN1CCN(C(=O)c2ccc(Nc3ncc(F)c(-c4ccc5nc(N(C)C)sc5c4)n3)nc2)CC1` [YK-2-69], the remaining activity at 1 µM in [1] stood at 48.3%; in [3] it was 97.5%; in experiment [4] it was 106%; in experiment [5] it was 95.2%; in experiment [6], 96.1%; in experiment [7], 73.1%. The remaining activity at 1 µM was determined as 111% in experiment [8]; 86.2% in experiment [11]; 110% in experiment [12]; 83% in experiment [13]; 77.7% in [14]; 97.4% in experiment [15]. For the same compound, the remaining activity at 1 µM amounted to 44.6% in experiment [16]; 98.3% in experiment [17]; 80.7% in [18]; 107% in experiment [19]; 89.2% in [20]; 37.5% in [21]. The “% Enzyme Activity (relative to DMSO controls)” value in experiment [2] was 87.08% and 86.46%; in experiment [9] (kinase CDK3/cyclin E) it was 106.69% and 103.49%; in experiment [9] (kinase CDK3/cyclin E2), 101.82% and 90.67%; in [10], 90.26% and 87.58%.
